Results: publication PMC11124387, “A Reliable Multifaceted Solution against Foodborne Viral Infections: The Case of RiLK1 Decapeptide” (Molecules, 2024)
Several values for one entry are separate records, joined by “and”; a condition that tells them apart may be missing. Identical values can stand only once. Where a SMILES comes first, the peptide text is derived from it.

What was measured:
[1] = tested on: Hepatitis A virus (HAV) strain HM-175; experiment: Virus pre-treatment assay, HAV; format: cell-based; settings: virus pre-treatment: peptide 80 µM with virus 1 h at RT, mean ± SD; for Viral Titre: then on Frp3 cells 1 h 37 °C
Description: (§1) Four sets of experiments were performed to suppose the effect of RiLK1 and RiLK3 on HAV and MNV-1 [29]. To this aim, 80 µM solutions of the two peptides and HAV and MNV-1 suspensions at a final concentration of 4.7 ± 0.2 log TCID50/mL and 4.5 ± 0.2 log TCID50/mL, respectively, were used in the following experiments: • i) A virus pre-treatment assay to assess the direct interaction between the virus and peptide: the incubation of the peptide with viral suspension for 1 h at room temperature was carried out, followed by its incubation on cells for 1 h at 37 °C. Then, cell monolayers were washed twice with PBS and incubated with 500 µL DMEM/MEM supplemented with 2% of FBS to determine the TCID50/mL. • ii) A cell pre-treatment assay to assess the interaction between the peptide and cells before the viral infection: cell monolayers were preincubated with 100 µL of peptide solution for 1 h at 37 °C, followed by the removal of the peptide, addition to cells of viral suspensions for 1 h at 37 °C, washing step, and culture with 2% FBS DMEM/MEM. • iii) An attachment assay to assess the possible action of the peptide at the stage of virus attachment to cells: cell monolayers were incubated with 100 µL of a suspension containing both the peptide and virus and were incubated for 1 h at 4 °C. […]
(§2) For each treatment, the average and standard deviation of the triplicate analyses were calculated. The virucidal effects of AMPs was assessed by calculating the log reduction value (LRV), i.e., the difference between the infectious titer (log-transformed) of untreated versus treated samples. The statistical significance of differences between treated and untreated samples was determined through one-way analysis of variance (ANOVA) with Bonferroni post hoc comparisons, with a significance level of p < 0.05 (GraphPad Prism v9.5.0, software San Diego, CA, USA).

[2] = tested on: Hepatitis A virus (HAV) strain HM-175; experiment: Entry assay, HAV; format: cell-based; settings: entry: cells with virus 1 h at 4 °C, then peptide 80 µM 1 h 37 °C, mean ± SD
Description: (§3) Four sets of experiments were performed to suppose the effect of RiLK1 and RiLK3 on HAV and MNV-1 [29]. To this aim, 80 µM solutions of the two peptides and HAV and MNV-1 suspensions at a final concentration of 4.7 ± 0.2 log TCID50/mL and 4.5 ± 0.2 log TCID50/mL, respectively, were used in the following experiments: • i) A virus pre-treatment assay to assess the direct interaction between the virus and peptide: the incubation of the peptide with viral suspension for 1 h at room temperature was carried out, followed by its incubation on cells for 1 h at 37 °C. Then, cell monolayers were washed twice with PBS and incubated with 500 µL DMEM/MEM supplemented with 2% of FBS to determine the TCID50/mL. • ii) A cell pre-treatment assay to assess the interaction between the peptide and cells before the viral infection: cell monolayers were preincubated with 100 µL of peptide solution for 1 h at 37 °C, followed by the removal of the peptide, addition to cells of viral suspensions for 1 h at 37 °C, washing step, and culture with 2% FBS DMEM/MEM. • iii) An attachment assay to assess the possible action of the peptide at the stage of virus attachment to cells: cell monolayers were incubated with 100 µL of a suspension containing both the peptide and virus and were incubated for 1 h at 4 °C. Subsequently, the cell monolayers were washed with PBS and incubated for 1 h at 37 °C with a culture medium followed by a washing step and the addition of culture with 2% FBS DMEM/MEM. • iv) An entry assay to assess the possible action of the peptide at the stage of virus internalization into cells: cell monolayers were incubated with 100 µL of the viral suspension for 1 h at 4 °C, followed by the addition of the peptide and incubation for 1 h at 37 °C. Cells were then washed with PBS, and 2% FBS DMEM/MEM was finally added.
(§4) Untreated viral suspensions and peptide solutions, incubated at the same conditions, were used as controls.
as §2

[3] = tested on: Murine norovirus strain 1 (MNV-1); experiment: Virus pre-treatment assay, MNV-1; format: cell-based; settings: virus pre-treatment: peptide 80 µM with virus 1 h at RT, mean ± SD; for Viral Titre: then on RAW 264.7 cells 1 h 37 °C
Description: as §1, §2

[4] = tested on: Murine norovirus strain 1 (MNV-1); experiment: Cell pre-treatment assay, MNV-1; format: cell-based; settings: cell pre-treatment: cells with peptide 80 µM 1 h 37 °C, peptide removed, then virus 1 h 37 °C, mean ± SD
Description: as §3, §4, §2

[5] = tested on: Murine norovirus strain 1 (MNV-1); experiment: Attachment assay, MNV-1; format: cell-based; settings: attachment: cells with peptide 80 µM and virus together 1 h at 4 °C, mean ± SD
Description: as §3, §4, §2

[6] = tested on: Murine norovirus strain 1 (MNV-1); experiment: Entry assay, MNV-1; format: cell-based; settings: entry: cells with virus 1 h at 4 °C, then peptide 80 µM 1 h 37 °C, mean ± SD
Description: as §3, §4, §2

[7] = cited from earlier work; for structural stability: pH 2; for conformation in mimicked membrane solutions (self-aggregation): ref [41],[42],[43],[44],[45]
Description: In this context, to acquire important information on how the conformational properties of peptides might influence the structure–function relationships and their distinct membrane interaction profiles, the propensity of the new peptides, RiLK30 and AVP2, to adopt a defined secondary structure and to undergo conformational changes were examined by circular dichroism and fluorescence spectroscopy. These analyses were performed in the presence of a negatively charged SDS that is commonly used as a biomimetic membrane model to study the structural features of membranotropic molecules. In previous ...

Campylobacter jejuni = format: cell-based; settings: peptide 40 and 80 µM, 6 h at 37 °C
Description: The monophasic variant of Salmonella Typhimurium, Salmonella Napoli, and Campylobacter jejuni were isolated by the Laboratory of Microbiological Food Control—Department of Food Microbiology of the Istituto Zooprofilattico Sperimentale del Mezzogiorno in Portici (Naples, Italy) in raw and processed foodstuffs of animal origin. Specifically, the monophasic variant of S. Typhimurium and S. Napoli were isolated from bivalve mollusks, while C. jejuni was isolated from poultry meat. Bacterial cells were cultured at 37 °C in the appropriate culture media (S. Typhimurium and S. Napoli in buffered peptone water (Thermo Fisher, Milan, Italy) and C. jejuni in Bolton Broth (Oxoid, Madrid, Spain)) until collection and then diluted in fresh broth to a final concentration of 1.5 × 10^3 colony forming units (CFUs)/mL. Thereafter, peptide stock solutions in DMSO were added to the bacterial suspension at the same concentrations used in the virucidal assays (40 and 80 µM) and incubated at 37 °C for 6 h. Samples containing only cell suspension and DMSO were used as controls. […]

Molecule | Viral Titre [1] [logTCID50/mL] | LRV [2] [logTCID50/mL] | Viral Titre [2] [logTCID50/mL] | Viral Titre [3] [logTCID50/mL] | LRV [4] | Viral Titre [4] [logTCID50/mL] | LRV [5] | Viral Titre [5] [logTCID50/mL] | LRV [6] [logTCID50/mL] | Viral Titre [6] [logTCID50/mL] | LRV ([6]; listed as RilLK1) [logTCID50/mL] | structural stability [7] | conformation in mimicked membrane solutions (self-aggregation) [7] | inhibitory activity against Campylobacter jejuni (in words) (Campylobacter jejuni) | LRV ([1]; then on cells 1 h 37 °C) [logTCID50/mL] | LRV ([3]; then on cells 1 h 37 °C) [logTCID50/mL]
CC[C@H](C)[C@H](NC(=O)[C@H](CCCNC(=N)N)NC(=O)[C@@H](NC(=O)[C@H](Cc1c[nH]c2ccccc12)NC(=O)[C@H](CCCCN)NC(=O)[C@H](CC(C)C)NC(=O)[C@@H](N)CCCNC(=N)N)C(C)C)C(=O)N[C@@H](Cc1c[nH]c2ccccc12)C(=O)N[C@@H](CCCNC(=N)N)C(=O)N[C@@H](CCCNC(=N)N)C(N)=O [RiLK1] (H-RLKWVRIWRR-NH2; N-terminus assumed) | 3.3 ± 0.2 | 0.1 ± 0.3 | 4.6 ± 0.1 | 3.3 ± 0.2 | 0.3 ± 0.4 logTCID50/mL | 4.2 ± 0.2 | 1.4 logTCID50/mL and 1.4 ± 0.4 logTCID50/mL | 3.1 ± 0.2 | 1.0 ± 0.4 | 3.5 ± 0.2 | 1.0 | high structural stability | higher-ordered self-aggregates | – | – | –
KLRWVKIWKK-NH2 [RiLK30, newly designed RiLK1 derivative, Arg residues exchanged with Lys and Lys3 with Arg] | – | – | – | – | – | – | – | – | – | – | – | – | – | the most ineffective | – | –
RLRWVRIWRR-NH2 [RiLK3, RiLK1 analog differing by one amino acid (Lys replaced with Arg), C-terminally amidated] | 4.4 ± 0.1 | 0.5 ± 0.4 | 4.2 ± 0.2 | 4.5 ± 0.1 | 1.0 logTCID50/mL and 1.0 ± 0.3 logTCID50/mL | 3.5 ± 0.1 | 1.0 logTCID50/mL and 1.0 ± 0.3 logTCID50/mL | 3.5 ± 0.1 | 1.0 ± 0.3 | 3.5 ± 0.1 | – | high structural stability | higher-ordered self-aggregates | – | 0.3 ± 0.3 | 0 ± 0.3
